Measured values from patent US10292390B2, “Inhibition and dispersion of bacterial biofilms with 2-aminobenzimidazole derivatives” (WISCONSIN ALUMNI RESEARCH FOUNDATION, priority 2011, dated 2019).
Entries after “also recorded” stand apart in the source; their conditions may differ.

Columns and labels:
[1] = system: preformed P. aeruginosa biofilms; test: biofilm dispersion assay (preformed 24 h-old biofilms, crystal violet); format: cell-based, Pseudomonas aeruginosa; settings: for dispersion of preformed biofilm / DC50: 24 h-old biofilm, additional 24 h with compound; for effect on final OD600 measurement during dispersion: 48 h; for DC50: Pseudomonas aeruginosa, read-out: half maximal dispersion DC50
Procedure: Compounds capable of not only inhibiting biofilm growth, but also dispersing preformed biofilms, are of particular value for a range of clinical and other applications. The ability of compounds 7 and 21 to disperse 24 h-old P. aeruginosa biofilms was tested using the crystal violet staining assay (FIG. 1B). Biofilms were allowed to develop in the absence of compound for 24 h, after which non-biofilm material was removed by washing with buffer and fresh media with compound was added. Biofilm was quantified after an additional 24 h, and the amount of dispersed biofilm was determined via comparison of the amount of biofilm at 48 h in the presence of compound versus the amount of biofilm at 24 h in the absence of compound. 2-ABIs 7 and 21 were capable of strongly dispersing P. aeruginosa biofilms (˜80%), with half maximal dispersion DC50 values of 84 μM and 92 μM, respectively (FIG. 1B).
Compounds 7 and 21 were evaluated for their ability to disperse preformed P. aeruginosa biofilms. For biofilm dispersion assessment, the static CV biofilm assay described above was modified in order to introduce compound to preformed biofilm for an additional incubation period. Solvent evaporation delivery of compound was not possible in this format; thus, stock solutions of compounds 7 and 21 were prepared in 95:5 M9+:LB media. Stocks of 7 and 21 were prepared at 3.16 mM and 1 mM, respectively (21 was insoluble at 3.16 mM). These stocks were diluted in series to obtain final concentrations as follows: 10^x μM where x=3.5 (7 only), 3, 2.5, 2, 1.5 (21 only), 1, 0, −1, or −2. Biofilms were allowed to form in microtiter plates in the absence of compound for 24 h, after which non-biofilm material was removed by dumping and washing as normal with sterile PBS. After the second washing, 200 μL of fresh 95:5 M9+:LB media containing compound at various concentrations was added to the wells, and the plates were incubated at 37° C. for an additional 24 h. One set of wells was left empty in order to assess the amount of biofilm present after the first 24 h incubation, while another set of wells was given media without compound to assess the amount of biofilm at 48 h. […] After the second 24 h incubation, non-biofilm material was removed by dumping and washing 4× with PBS (the additional washing at 48 h was found necessary to completely remove detached Int biofilm that had settled over the SA biofilm; data not shown). Biofilm was fixed and quantified with CV as described above. The amount of dispersed biofilm was determined via comparison of the amount of biofilm at 48 h in the presence of compound versus the amount of biofilm in the “no compound” positive control at 24 h. A higher degree of error was often observed with this assay format due to the additional incubation and washing steps; thus, all compounds were tested in replicates of 6 wells.
DC50 values for biofilm dispersion by 7 and 21 were calculated using a sigmoidal curve fit (three parameters) and are reported with a 95% Cl.

[2] = system: P. aeruginosa PAO1 gen-gfp; test: constitutive GFP production (general protein synthesis); format: cell-based, Pseudomonas aeruginosa; settings: 24 h; dose-response
Procedure: Compounds 7 and 21 were tested for their effect on general protein synthesis in P. aeruginosa. In these assays a P. aeruginosa strain that constitutively produced GFP was employed. […] [59]
The constitutively-expressing genomic (gen)-GFP strain, PAO1 gen-gfp, was prepared using the mini-Tn7 transposon system reported by Lambertsen et al. and Koch et al. to introduce the Tn7 element miniTn7-gfp2 into the neutral chromosomal site attTn7 in the PAO1 genome. The Tn7 element miniTn7-gfp2 was chosen for these studies because it encodes for the same GFP variant, GFPmut3b, used in our QS reporters, discussed herein below. However, rather than being an unstable GFP under the control of the laslI or rhII QS-dependent promoter as in the QS reporters, GFP is stable and under the control of the constitutive E. coli lac-promoter derivative PA1/04/03. The use of this strain allows a comparison of QS-dependent and non-QS-dependent gene expression in the presence of 7 and 21.
Compounds 7 and 21 were evaluated for their ability to affect constitutive GFP production in the P. aeruginosa PAO1 gen-gfp strain using the static biofilm assay conditions described above. […] Measurements of FL500/540 and OD600 were made at 24 h, after which the samples were evaluated for biofilm formation using the CV procedure. […]

With `Cc1cc2nc(N)[nH]c2cc1C` [Compound 21, 5,6-Dimethyl-2-aminobenzimidazole] as the compound, how does the “dispersion of preformed biofilm” value [1] read?
The value was about 80%.

What about the “effect on final OD600 measurement during dispersion” value [1] of the same compound?
The value was “without significantly affecting the final OD600 measurement”.

What about the DC50 [1] of the same compound?
The DC50 was 92 µM.

What about the “effect on constitutive GFP production / protein synthesis” value [2] of the same compound?
Its value is “only inhibit the production of GFP at concentrations where bacterial growth is also inhibited; also recorded: do not simply globally affect protein synthesis”.

For `Nc1nc2ccccc2[nH]1` [Compound 7, 2-aminobenzimidazole], which “dispersion of preformed biofilm” value [1] is on record?
The value was about 80%.

And the “effect on final OD600 measurement during dispersion” value [1]?
Its value is “without significantly affecting the final OD600 measurement”.

What about the DC50 [1] of the same compound?
Its DC50 is 84 µM.

What about the “effect on constitutive GFP production / protein synthesis” value [2] of the same compound?
Its value is “only inhibit the production of GFP at concentrations where bacterial growth is also inhibited; also recorded: do not simply globally affect protein synthesis”.
